Drawing on patent publication US10793580B2, “Substituted pyrazoloazepin-8-ones and their use as phosphodiesterase inhibitors” (LEO Pharma A/S, priority 2016, dated 2020), this text covers IC50 for 21 compounds.

What is called IC50 is the point on the concentration scale where inhibition reaches its midpoint.

Sequence of human PDE4D catalytic domain (Q08499 380-740): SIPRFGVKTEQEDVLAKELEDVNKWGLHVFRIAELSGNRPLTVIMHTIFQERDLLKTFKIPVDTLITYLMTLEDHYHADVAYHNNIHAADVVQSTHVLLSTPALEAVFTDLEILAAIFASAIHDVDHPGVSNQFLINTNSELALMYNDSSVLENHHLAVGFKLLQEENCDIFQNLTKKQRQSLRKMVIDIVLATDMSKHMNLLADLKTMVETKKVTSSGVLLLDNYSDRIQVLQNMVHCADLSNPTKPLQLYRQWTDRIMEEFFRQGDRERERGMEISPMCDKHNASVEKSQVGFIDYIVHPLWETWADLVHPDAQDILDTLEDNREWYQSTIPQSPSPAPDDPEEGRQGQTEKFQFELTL

The first experiment deals with human PDE4D catalytic domain (Homo sapiens (Human), UniProt Q08499). The experiment is described as follows: PDE4 Assay (TR-FRET, FAM-cAMP cleavage). In kind it is biochemical. Particulars: Table 16, Examples 277-296; read-out: PDE4 IC50 range. The method, boiled down:
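Readout is Tb-to-FAM time-resolved FRET after nanoparticle capture of AMP, the product of cleaving a cAMP/FAM-cAMP mixture by PDE4D catalytic domain (S380-L740) in the presence of titrated compound. Values are IC50 ranges in nM: concentration halving substrate cleavage relative to controls.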
Background: In TR-FRET formats the signal depends on donor and acceptor labels being close together.
As to `CCn1nc(C[C@@H](C)COC(=O)c2cscn2)c2c1C(=O)NCC1(CCOCC1)C2` [Example 285, [(2R)-3-(1-ethyl-8-oxo-spiro[6,7-dihydro-4H-pyrazolo[3,4-c]azepine-5,4′-tetrahydropyran]-3-yl)-2-methyl-propyl] thiazole-4-carboxylate], the IC50 was < 100 nM.

The experiment is the same for the next values; noted with them: human PDE4D catalytic domain (UniProt Q08499 [S380-L740]); 50% inhibition of substrate cleavage; read-out: PDE4 IC50 range.
For the compound `CCn1nc(CCCOC(=O)c2ccc(S(=O)(=O)CC)cc2)c2c1C(=O)NCC1(CCOCC1)C2` [Example 77, 3-(1-ethyl-8-oxo-spiro[6,7-dihydro-4H-pyrazolo[3,4-c]azepine-5,4′-tetrahydro-pyran]-3-yl)propyl 4-ethylsulfonylbenzoate], the IC50 was < 100 nM. Still for that read-out and setting: as for `CCn1nc(CCCOC(=O)c2cnn(C)c2)c2c1C(=O)NCC1(CCOCC1)C2` [Example 238, 3-(1-ethyl-8-oxo-spiro[6,7-dihydro-4H-pyrazolo[3,4-c]azepine-5,4′-tetrahydropyran]-3-yl)propyl 1-methylpyrazole-4-carboxylate], the figure is < 100 nM; as for `CCn1nc(C[C@@H](C)COC(=O)c2cccc(S(=O)(=O)N3CCN(C(C)=O)CC3)c2)c2c1C(=O)NCC1(CCOCC1)C2` [Example 166, [(2R)-3-(1-ethyl-8-oxo-spiro[6,7-dihydro-4H-pyrazolo[3,4-c]azepine-5,4′-tetrahydropyran]-3-yl)-2-methyl-propyl] 3-(4-acetylpiperazin-1-yl)sulfonylbenzoate], < 100 nM; as for `CCn1nc(CCCCOC(=O)c2coc(C)n2)c2c1C(=O)NCC1(CCOCC1)C2` [Example 266, 4-(1-ethyl-8-oxo-spiro[6,7-dihydro-4H-pyrazolo[3,4-c]azepine-5,4′-tetrahydropyran]-3-yl)butyl 2-methyloxazole-4-carboxylate], < 100 nM.

`CCn1nc(CCCOC(=O)c2cccc(F)c2Cl)c2c1C(=O)NCC1(CCOCC1)C2` [Example 49, 3-(1-ethyl-8-oxo-spiro[6,7-dihydro-4H-pyrazolo[3,4-c]azepine-5,4′-tetrahydropyran]-3-yl)propyl 2-chloro-3-fluoro-benzoate]: the IC50 is < 100 nM. Still for that read-out and setting: as for `CCn1nc(CC(C)(C)COC(=O)c2ccc(S(=O)(=O)NC)cc2)c2c1C(=O)NCC1(CCOCC1)C2` [Example 205, [3-(1-ethyl-8-oxo-spiro[6,7-dihydro-4H-pyrazolo[3,4-c]azepine-5,4′-tetrahydropyran]-3-yl)-2,2-dimethyl-propyl] 4-(methylsulfamoyl)benzoate], the figure is < 100 nM; as for `CCn1nc(CCCOC(=O)c2ccc(C)cc2)c2c1C(=O)NCC1(CCOCC1)C2` [Example 8, 3-(1-ethyl-8-oxo-spiro[6,7-dihydro-4H-pyrazolo[3,4-c]azepine-5,4′-tetrahydropyran]-3-yl)propyl 4-methylbenzoate], < 100 nM.

Take `CCn1nc(CCCCOC(=O)c2ccc(C(N)=O)cc2)c2c1C(=O)NCC1(CCOCC1)C2` [Example 127, 4-(1-ethyl-8-oxo-spiro[6,7-dihydro-4H-pyrazolo[3,4-c]azepine-5,4′-tetrahydropyran]-3-yl)butyl 4-carbamoylbenzoate]: the 50% inhibitory concentration (IC50) was < 100 nM. For the compound `CCn1nc(CC(C)(C)COC(=O)CCS(C)(=O)=O)c2c1C(=O)NCC1(CCOCC1)C2` [Example 199, [3-(1-ethyl-8-oxo-spiro[6,7-dihydro-4H-pyrazolo[3,4-c]azepine-5,4′-tetrahydropyran]-3-yl)-2,2-dimethyl-propyl] 3-methylsulfonylpropanoate], the half-maximal inhibitory concentration (IC50) was < 100 nM. Still for that read-out and setting: the result for `CCn1nc(CCCOC(=O)c2ccc(C)cc2F)c2c1C(=O)NCC1(CCOCC1)C2` [Example 18, 3-(1-ethyl-8-oxo-spiro[6,7-dihydro-4H-pyrazolo[3,4-c]azepine-5,4′-tetrahydropyran]-3-yl)propyl 2-fluoro-4-methyl-benzoate] reads < 100 nM. On to `CCn1nc(CCCOC(=O)c2ccc(C(F)F)cc2)c2c1C(=O)NCC1(CCOCC1)C2` [Example 45, 3-(1-ethyl-8-oxo-spiro[6,7-dihydro-4H-pyrazolo[3,4-c]azepine-5,4′-tetrahydropyran]-3-yl)propyl 4-(difluoromethyl)benzoate], for which the IC50 is < 100 nM. Consider `CCn1nc(CCCOC(=O)c2cc(F)cc(C(F)(F)F)c2)c2c1C(=O)NCC1(CCOCC1)C2` [Example 72, 3-(1-ethyl-8-oxo-spiro[6,7-dihydro-4H-pyrazolo[3,4-c]azepine-5,4′-tetrahydro-pyran]-3-yl)propyl 3-fluoro-5-(trifluoromethyl)benzoate], for which the half-inhibitory concentration (IC50) is < 100 nM. As to `CCn1nc(CCCOC(=O)c2cn(C)cn2)c2c1C(=O)NCC1(CCOCC1)C2` [Example 239, 3-(1-ethyl-8-oxo-spiro[6,7-dihydro-4H-pyrazolo[3,4-c]azepine-5,4′-tetrahydropyran]-3-yl)propyl 1-methylimidazole-4-carboxylate], the IC50 was < 100 nM.

Regarding `CCn1nc(CCCOC(=O)c2ccc(Cl)cc2C(F)(F)F)c2c1C(=O)NCC1(CCOCC1)C2` [Example 84, 3-(1-ethyl-8-oxo-spiro[6,7-dihydro-4H-pyrazolo[3,4-c]azepine-5,4′-tetrahydropyran]-3-yl)propyl 4-chloro-2-(trifluoromethyl)benzoate], the IC50 was < 100 nM. Still for that read-out and setting: as for `CCn1nc(CC(C)(C)COC(=O)c2ccc(C(N)=O)cc2)c2c1C(=O)NCC1(CCOCC1)C2` [Example 218, [3-(1-ethyl-8-oxo-spiro[6,7-dihydro-4H-pyrazolo[3,4-c]azepine-5,4′-tetrahydropyran]-3-yl)-2,2-dimethyl-propyl] 4-carbamoylbenzoate], the figure is < 100 nM; as for `CCn1nc(CCCOC(=O)c2cccc(Cl)c2OC)c2c1C(=O)NCC1(CCOCC1)C2` [Example 59, 3-(1-ethyl-8-oxo-spiro[6,7-dihydro-4H-pyrazolo[3,4-c]azepine-5,4′-tetrahydropyran]-3-yl)propyl 3-chloro-2-methoxy-benzoate], < 100 nM; as for `CCn1nc(CCCOC(=O)c2cccc(S(=O)(=O)N3CCCC3)c2)c2c1C(=O)NCC1(CCOCC1)C2` [Example 95, 3-(1-ethyl-8-oxo-spiro[6,7-dihydro-4H-pyrazolo[3,4-c]azepine-5,4′-tetrahydro-pyran]-3-yl)propyl 3-pyrro-lidin-1-ylsulfonylbenzoate], < 100 nM. On the same count and under the same terms, the result for `CCn1nc(C[C@@H](C)COC(=O)c2ccc(S(=O)(=O)C(C)C)cc2)c2c1C(=O)NCC1(CCOCC1)C2` [Example 160, [(2R)-3-(1-ethyl-8-oxo-spiro[6,7-dihydro-4H-pyrazolo[3,4-c]azepine-5,4′-tetrahydropyran]-3-yl)-2-methyl-propyl] 4-isopropylsulfonylbenzoate] reads < 100 nM; that for `CCn1nc(CCCOC(=O)c2cc(F)ccc2F)c2c1C(=O)NCC1(CCOCC1)C2` [Example 25, 3-(1-ethyl-8-oxo-spiro[6,7-dihydro-4H-pyrazolo[3,4-c]azepine-5,4′-tetrahydropyran]-3-yl)propyl 2,5-difluorobenzoate], < 100 nM; that for `CCn1nc(CCCOC(=O)c2ccc(Cl)cc2OC)c2c1C(=O)NCC1(CCOCC1)C2` [Example 61, 3-(1-ethyl-8-oxo-spiro[6,7-dihydro-4H-pyrazolo[3,4-c]azepine-5,4′-tetrahydropyran]-3-yl)propyl 4-chloro-2-methoxy-benzoate], < 100 nM.
